This is an account of results in patent publication US7282215B2, “Supports for photosensitizer formulations” (The University of British Columbia, priority 2000, dated 2007).

Type in all cases: physicochemical
The nature of series [1]: Optimization of B-B3 incorporation in 10% w/v P123. On the procedure: Using formulation methods described in Example 5, the aim was to incorporate 2 mg/ml of B-B3 into 10% w/v P123. It was shown by this method that the B-B3 can typically be incorporated at ˜1.8 mg/ml drug (based on absorbance readings and a molar extinction coefficient of 30425) 24 h post-hydration. This translates to approximately 10% drug loss. Unincorporated drug undergoes aggregation in aqueous solutions, and is characterized by the appearance of a 730 nm absorbance peak. Although the formulations can be made completely aggregate free by centrifugation or sterile filtration through 0.2 μm filters, this adds another step in the manufacturing process, which can be avoided by increasing the copolymer:drug ratio.

Series [2] can be described thus: pH studies of copolymer formulations. The settings on record: acidification. The source says:
Counteracting the oily nature of P123 could be achieved by incorporation of copolymer that is in solid form at room temperature. The use of 1% w/w F127 with 9% w/v P123 instead of 10% P123 (w/v) produced a thin film, which was more readily hydrated. […] This necessitates hydration of the solid drug-polymer with a very mild buffer to counteract acidification which occurs upon use of sterile packed distilled water as commonly practiced in clinical settings. Behavior of poloxamers is unaffected by pH, and the use of buffers would be entirely dependent on ionizable groups present on the drug substance.

Series [3] can be described thus: Vesicle size of liposomal BPD-MA (conventional and lactose micro-thin film). On the procedure: For the standard laboratory preparation the liposomal bilayer components of 20 mg BPD-MA, 65 mg egg phosphatidyl glycerol (EPG) and 94 mg dimyristoyl phosphatidylcholine (DMPC), are combined in a round bottom flask and dissolved in 10 ml methylene dichloride (CH2Cl2). […]. The solvent is removed using standard rotary evaporation (Rotavapor R-124 and Buchi B171 Vacobox pump) leaving a thin film of the bilayer components on the flask wall. Once the thin film is prepared, it is hydrated using 10 ml iso-osmolar lactose (10% w/v) to give a final concentration of 2 mg/ml BPD-MA. Size reduction is carried out by consecutive extrusions through 400 nm, 200 nm, and finally 100 nm pore polycarbonate membranes (5 times through each) under high pressure. […] The final product was lyophilized and can be reconstituted prior to use by addition of water.
10 mg BPD-MA was combined with 32.5 mg phosphatidyl glycerol (EPG) and 47 mg dimyristoyl phosphatidylcholine (DMPC), and dissolved in 5 ml CH2Cl2. 2.5 ml of this solution (containing 5 mg BPD-MA) was then added to […] lactose in a rotary evaporator flask. The solvent was removed under rotary evaporation at 50° C. The film deposited on the glass wall was hydrated by addition of 2.5 ml warm distilled water (60° C.) with swirling. The hydrated material was examined under the microscope. Size reduction was carried out by extrusion of the hydrated material through 400, 200 and 100 nm pore polycarbonate membranes (5× through each) as described in Example 20.
In this experiment the effect of replacing CH2Cl2 with ethanol as a solvent for the sugar proliposomal formulation of photosensitizer and phospholipids was examined. The experiment was carried out as described in Example 21 except with the following changes: 20 mg BPD-MA was combined with 65 mg EPG and 94 mg DMPC, and dissolved in a total volume of 20 ml ethanol with occasional warming in 50° C. water bath. Ethanol was removed under rotary evaporation at 50° C., leaving BPD-MA/lipid coated lactose crystals evenly deposited onto flask wall. Flask was removed from the temperature bath, and left under vacuum for 10 min. The contents of the flask were scraped and hydrated by addition of 10 ml distilled water (60° C.) with swirling. The hydrated material was examined under the microscope and the MLV diameter was measured using laser light scattering on a NICOMP™ 370 Submicron Particle Sizer. Extrusion was then carried out as described in Example 20.
The experimental procedure was carried out was as described in Example 22, with the exception of the following changes. The liposomal bilayer constituents, 32.5 mg of EPG and 47 mg of DMPC, were dissolved in 2 ml ethanol, instead of 20 ml. The solution was warmed to 50° C. in a water bath. This was followed by addition of 10 mg BPD-MA, and the total volume was made up to 4 ml to ensure complete dissolution (2.5 mg/ml final concentration). 0.5 g of lactose was added to the round bottom flask. The solvent was removed by rotary evaporation, and the flask removed from the water bath, and left under vacuum for 1.5 h. For hydration, 5 ml of pre-warmed distilled water (60° C.) was added to flask with swirling. Extrusion of the solution and sizing of the vesicles was carried out as described in Example 22.

Series [4] is described as follows: BPD-MA/F127 deposited on lactose: hydration and 0.2 μm filtration. The settings on record: 5% w/v and 10% w/v F127 deposited on lactose, hydrated in water. On the procedure:
In this experiment the deposition of the photosensitizer BPD-MA with the block copolymer Pluronic® F127 onto the sugar lactose was examined. Formulations containing 5% (w/v) and a 10% (w/v) F127 were tested. 0.5 g lactose and 10 mg BPD-MA were added to two rotary evaporation flasks. A stock solution of […] F127 was prepared in CH2Cl2. 1.25 ml (for 5% w/v) and 2.5 ml (for 10% w/v) F127 stock solution was added to each flask. The final volume in each flask was made up to 5.0 ml with CH2Cl2 and the components mixed to ensure complete dissolution. The solvent was removed by rotary evaporation at 50° C., and the flask left under vacuum for a further 15 min at 23° C. Micro-thin film deposits were scraped from the walls and hydrated in 5 ml water at 50° C. The formulations were filtered twice using 0.2 μm syringe filters (Acrodisc, polysulphone).

`C=Cc1c(C)c2cc3nc(cc4[nH]c(cc5nc(cc1[nH]2)C1(C)C5=CC=C(C(=O)O)C1C(=O)OC)c(C)c4CCC(=O)OC)C(CCC(=O)OC)=C3C` (centres unmarked) [B-B3]: the Drug loss entry in series [1] (2 mg/ml added) is “approximately 10%”. Also, in series [1] (2 mg/ml added, 24 h post-hydration), the Drug incorporated is ~1.8 mg/mL. Besides, the Drug incorporation result in series [1] (final drug concentration 1 mg/ml) is recorded as “complete incorporation of all added drug”. Besides, the “pH dependency of formulation stability” value in series [2] is on record as “detrimental to formulation stability”.
As to `C=Cc1c(C)c2cc3nc(cc4[nH]c(cc5nc(cc1[nH]2)C(C)=C5CCC(=O)O)c(CCC(=O)OC)c4C)[C@@]1(C)C3=CC=C(C(=O)OC)[C@H]1C(=O)OC` [BPD-MA, benzoporphyrin derivative mono-acid-ring A, reference compound], the “Diameter of MLVs” value in series [3] (hydration of conventional thin films) is listed as > 1 μm. The “Mean diameter of the MLVs” value in series [3] (lactose micro-thin film from ethanol, 92.44% by volume) stood at 690 nm. The “Diameter of unilamellar vesicles after extrusion, smaller population” value in series [3] (lactose micro-thin film, 20 ml ethanol, 23.17% by volume) is 47.9 nm. For the same compound, in series [3] (lactose micro-thin film, 20 ml ethanol, 76.83% by volume), the “Diameter of unilamellar vesicles after extrusion, larger population” value was 110.4 nm. Besides, the “Mean diameter of unilamellar vesicles, smaller population” value in series [3] (lactose micro-thin film, reduced ethanol volume, 29.49% by volume) was found to be 58.4 nm. In addition, the “Mean diameter of unilamellar vesicles, larger population” value in series [3] (lactose micro-thin film, reduced ethanol volume, 70.5% by volume) is 132.4 nm. In addition, the “Drug loss on filtration through 0.2 μm filters” value in series [4] is on record as “no drug loss”.
